{"source": "paper PMC13463089", "about": "“PA200 modulates immunoproteasome structure and activity” (Nature Communications, 2026)", "key": {"[1]": {"biological_target": "T1, i20S-PA200 complex (PA200 / PSME4 bound to the immunoproteasome) (Homo sapiens, UniProt Q14997)", "T1 construct": "recombinant purified human PA200, about 200 kDa, one or two copies per 20S; human i20S commercial (cryo-EM) or purified from HEK293-EBNA (activity); with Proteasome subunit beta type-8; Proteasome subunit beta type-9; Proteasome subunit beta type-10; Proteasome subunit alpha type-6; Proteasome subunit alpha type-2; Proteasome subunit alpha type-4; Proteasome subunit alpha type-7; Proteasome subunit alpha type-5; Proteasome subunit alpha type-1; Proteasome subunit alpha type-3; Proteasome subunit beta type-3; Proteasome subunit beta type-2; Proteasome subunit beta type-1; Proteasome subunit beta type-4", "T1 sequence (P28065 21-219 partner, one chain of several)": "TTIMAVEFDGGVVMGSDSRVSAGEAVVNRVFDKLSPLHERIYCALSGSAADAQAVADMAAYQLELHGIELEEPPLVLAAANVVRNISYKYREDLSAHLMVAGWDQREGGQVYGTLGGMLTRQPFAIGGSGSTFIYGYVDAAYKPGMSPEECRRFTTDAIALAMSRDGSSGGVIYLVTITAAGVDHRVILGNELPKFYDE", "T1 sequence (P40306 40-273 partner, one chain of several)": "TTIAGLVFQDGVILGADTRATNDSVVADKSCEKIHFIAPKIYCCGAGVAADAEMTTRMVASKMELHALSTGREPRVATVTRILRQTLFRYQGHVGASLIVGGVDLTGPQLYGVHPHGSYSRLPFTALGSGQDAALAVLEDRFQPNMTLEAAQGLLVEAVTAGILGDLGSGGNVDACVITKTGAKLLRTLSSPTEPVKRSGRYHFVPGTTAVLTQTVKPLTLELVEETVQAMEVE", "assay": "fluorogenic peptide assay of […] activity", "type": "biochemical", "details": "PA200 21.5 nM preincubated with 70 uM IP6, i20S 1.5 nM; substrates LLVY, ANW, PAL, LRR; pH 7.6, 37 C; activator"}, "[2]": {"biological_target": "T2, s20S-PA200 complex (PA200 / PSME4 bound to the standard proteasome) (Homo sapiens, UniProt Q14997)", "T2 construct": "recombinant purified human PA200 mixed with purified human s20S; with Proteasome subunit beta type-5; Proteasome subunit beta type-6; Proteasome subunit beta type-7; Proteasome subunit alpha type-6; Proteasome subunit alpha type-2; Proteasome subunit alpha type-4; Proteasome subunit alpha type-7; Proteasome subunit alpha type-5; Proteasome subunit alpha type-1; Proteasome subunit alpha type-3; Proteasome subunit beta type-3; Proteasome subunit beta type-2; Proteasome subunit beta type-1; Proteasome subunit beta type-4", "T2 sequence (P28072 35-239 partner, one chain of several)": "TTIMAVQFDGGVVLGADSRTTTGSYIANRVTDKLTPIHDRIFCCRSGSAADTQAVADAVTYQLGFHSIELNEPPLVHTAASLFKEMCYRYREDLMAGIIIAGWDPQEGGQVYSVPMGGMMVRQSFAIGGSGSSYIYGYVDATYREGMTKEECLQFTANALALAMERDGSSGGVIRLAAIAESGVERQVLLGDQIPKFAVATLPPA", "T2 sequence (Q99436 44-277 partner, one chain of several)": "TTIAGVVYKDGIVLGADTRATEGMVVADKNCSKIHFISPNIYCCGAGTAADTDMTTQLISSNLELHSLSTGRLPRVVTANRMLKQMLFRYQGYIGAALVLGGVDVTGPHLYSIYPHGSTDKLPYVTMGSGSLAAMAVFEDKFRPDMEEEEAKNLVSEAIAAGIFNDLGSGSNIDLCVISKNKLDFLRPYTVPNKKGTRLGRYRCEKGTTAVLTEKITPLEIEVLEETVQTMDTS", "assay": "fluorogenic peptide assay of […] activity", "type": "biochemical", "details": "PA200 21.5 nM preincubated with 70 uM IP6, s20S 1.5 nM; pH 7.6, 37 C"}, "[3]": {"biological_target": "T1, i20S-PA200 complex (PA200 / PSME4 bound to the immunoproteasome)", "assay": "cryo-EM structure ([…] and […] A)", "type": "binding", "details": "two IP6 molecules in the two positively charged grooves of PA200; density assigned by analogy to s20S-PA200 structures"}, "[4]": {"biological_target": "T3, i20S (20S immunoproteasome), beta5i site (Homo sapiens, UniProt P28062)", "T3 construct": "gene PSMB8; with Proteasome subunit beta type-9; Proteasome subunit beta type-10; Proteasome subunit alpha type-6; Proteasome subunit alpha type-2; Proteasome subunit alpha type-4; Proteasome subunit alpha type-7; Proteasome subunit alpha type-5; Proteasome subunit alpha type-1; Proteasome subunit alpha type-3; Proteasome subunit beta type-3; Proteasome subunit beta type-2; Proteasome subunit beta type-1; Proteasome subunit beta type-4", "T3 sequence (P28062 73-276)": "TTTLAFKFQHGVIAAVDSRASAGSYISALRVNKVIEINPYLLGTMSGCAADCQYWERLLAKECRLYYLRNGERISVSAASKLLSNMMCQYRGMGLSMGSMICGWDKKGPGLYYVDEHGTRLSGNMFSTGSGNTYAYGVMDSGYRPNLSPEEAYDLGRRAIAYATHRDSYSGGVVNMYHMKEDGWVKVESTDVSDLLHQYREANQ", "assay": "fluorogenic AMC release", "type": "biochemical", "details": "chymotrypsin-like (beta5i) site; 200 uM substrate, 1.5 nM 20S, pH 7.6, 37 C"}, "[5]": {"biological_target": "T4, s20S (standard 20S proteasome), beta5 site (Homo sapiens, UniProt P28074)", "T4 construct": "gene PSMB5; with Proteasome subunit beta type-6; Proteasome subunit beta type-7; Proteasome subunit alpha type-6; Proteasome subunit alpha type-2; Proteasome subunit alpha type-4; Proteasome subunit alpha type-7; Proteasome subunit alpha type-5; Proteasome subunit alpha type-1; Proteasome subunit alpha type-3; Proteasome subunit beta type-3; Proteasome subunit beta type-2; Proteasome subunit beta type-1; Proteasome subunit beta type-4", "T4 sequence (P28074 60-263)": "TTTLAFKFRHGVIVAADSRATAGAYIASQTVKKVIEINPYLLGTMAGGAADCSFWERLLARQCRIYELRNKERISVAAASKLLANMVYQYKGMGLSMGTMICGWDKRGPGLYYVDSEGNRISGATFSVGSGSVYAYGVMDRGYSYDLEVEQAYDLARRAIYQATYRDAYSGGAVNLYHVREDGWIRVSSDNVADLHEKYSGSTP", "assay": "fluorogenic AMC release", "type": "biochemical", "details": "chymotrypsin-like (beta5) site; 200 uM substrate, 1.5 nM 20S, pH 7.6, 37 C"}, "[6]": {"biological_target": "T5, recombinantly expressed and purified human PA200 (human), Q14997", "T5 chain": "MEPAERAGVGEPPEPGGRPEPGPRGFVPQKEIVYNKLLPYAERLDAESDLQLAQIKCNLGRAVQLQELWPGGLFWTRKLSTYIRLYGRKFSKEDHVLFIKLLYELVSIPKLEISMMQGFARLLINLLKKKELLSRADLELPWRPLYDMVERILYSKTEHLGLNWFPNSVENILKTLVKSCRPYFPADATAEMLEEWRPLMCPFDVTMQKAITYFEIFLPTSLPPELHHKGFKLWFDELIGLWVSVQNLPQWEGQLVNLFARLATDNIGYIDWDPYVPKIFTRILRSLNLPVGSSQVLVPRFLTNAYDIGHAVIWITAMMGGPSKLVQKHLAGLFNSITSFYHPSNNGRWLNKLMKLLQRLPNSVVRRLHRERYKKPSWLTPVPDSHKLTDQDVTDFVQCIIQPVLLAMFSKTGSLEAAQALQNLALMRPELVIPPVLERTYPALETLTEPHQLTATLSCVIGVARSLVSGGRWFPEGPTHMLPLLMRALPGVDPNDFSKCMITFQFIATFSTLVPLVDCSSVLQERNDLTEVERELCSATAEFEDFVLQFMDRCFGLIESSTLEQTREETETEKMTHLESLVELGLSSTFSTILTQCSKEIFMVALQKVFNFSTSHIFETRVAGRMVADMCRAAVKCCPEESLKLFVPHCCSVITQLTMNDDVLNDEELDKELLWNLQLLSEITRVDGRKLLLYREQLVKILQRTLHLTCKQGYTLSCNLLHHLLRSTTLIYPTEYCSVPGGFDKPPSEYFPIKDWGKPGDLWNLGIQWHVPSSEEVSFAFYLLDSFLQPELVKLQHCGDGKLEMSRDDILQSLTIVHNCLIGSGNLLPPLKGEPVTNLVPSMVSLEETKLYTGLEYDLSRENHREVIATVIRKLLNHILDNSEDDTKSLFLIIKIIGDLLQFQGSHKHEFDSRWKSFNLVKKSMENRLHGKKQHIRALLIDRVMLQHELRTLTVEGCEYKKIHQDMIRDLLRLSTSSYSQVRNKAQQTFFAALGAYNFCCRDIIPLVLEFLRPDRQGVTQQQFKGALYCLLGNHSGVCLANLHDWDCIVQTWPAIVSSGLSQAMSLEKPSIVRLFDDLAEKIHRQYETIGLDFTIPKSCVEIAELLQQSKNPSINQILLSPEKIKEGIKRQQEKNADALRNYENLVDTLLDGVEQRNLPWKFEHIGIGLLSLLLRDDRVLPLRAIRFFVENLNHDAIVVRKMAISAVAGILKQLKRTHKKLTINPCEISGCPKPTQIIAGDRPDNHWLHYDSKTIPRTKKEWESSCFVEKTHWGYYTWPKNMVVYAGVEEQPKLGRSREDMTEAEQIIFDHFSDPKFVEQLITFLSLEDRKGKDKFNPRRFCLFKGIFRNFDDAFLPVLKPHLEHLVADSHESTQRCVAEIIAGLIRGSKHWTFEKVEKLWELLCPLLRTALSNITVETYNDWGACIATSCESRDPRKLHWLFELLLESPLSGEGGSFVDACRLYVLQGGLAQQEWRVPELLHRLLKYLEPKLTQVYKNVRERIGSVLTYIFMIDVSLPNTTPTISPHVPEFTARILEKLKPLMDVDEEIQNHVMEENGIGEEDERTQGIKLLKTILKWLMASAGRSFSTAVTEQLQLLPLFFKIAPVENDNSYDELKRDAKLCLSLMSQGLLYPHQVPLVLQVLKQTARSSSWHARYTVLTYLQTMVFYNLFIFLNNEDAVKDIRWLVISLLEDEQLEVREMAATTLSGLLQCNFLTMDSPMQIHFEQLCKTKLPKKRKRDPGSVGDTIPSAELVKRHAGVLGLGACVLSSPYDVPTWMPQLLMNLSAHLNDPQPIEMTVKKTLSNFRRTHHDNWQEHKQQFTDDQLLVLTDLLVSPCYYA", "assay": "mass photometry; 20S at 120 nM titrated with PA200 (PA200:20S molar ratios from 0 to 15), Tris 50 mM pH 7.6, 2 h on ice, diluted six times to 20 nM 20S immediately before measurement; apparent KD from counts of free, singly- and doubly-capped 20S", "details": "remark: other sources report otherwise"}}, "note": "Numbered stars: 1 amine (or outer) side, 2 acyl side, 3 side chain; on linkers, the order of the positions; unused ones are H or OH. Peptide text beside a SMILES is read from it. * marks the point of attachment. AMC = Cc1cc(=O)oc2cc(N*)ccc12; Suc = O=C(CCC(=O)[*:2])[*:1]"}
{"molecule": "O=P(O)(O)O[C@H]1[C@H](OP(=O)(O)O)[C@@H](OP(=O)(O)O)[C@H](OP(=O)(O)O)[C@@H](OP(=O)(O)O)[C@H]1OP(=O)(O)O", "note": "[IP6]", "values": [{"measurement": "relative activity", "setting": "[1]", "value": "strong increase of the three activities that are specific for the i20S"}, {"measurement": "relative activity", "setting": "[2]", "value": "Effect of phytic acid (IP6) on PA200-activated i20S (B, dark blue bars) and s20S"}, {"measurement": "cryo-EM structure (2.85 and 2.89 A)", "setting": "[3]", "value": "we assigned these densities to two molecules of IP6"}]}
{"molecule": "Cc1cc(=O)oc2cc(NC(=O)[C@H](Cc3ccc(O)cc3)NC(=O)[C@@H](NC(=O)[C@H](CC(C)C)NC(=O)[C@H](CC(C)C)NC(=O)CCC(=O)O)C(C)C)ccc12", "note": "[Suc-LLVY-AMC] (Suc-LLVY-{AMC})", "values": [{"measurement": "fluorogenic AMC release", "setting": "[4]", "value": "the baseline CT-L and T-L activities of the i20S and s20S were similar"}, {"measurement": "fluorogenic AMC release", "setting": "[5]", "value": "the baseline CT-L and T-L activities of the i20S and s20S were similar"}]}
{"molecule": "recombinantly expressed and purified human PA200, Q14997 1-1843 (natural protein) MEPAERAGVGEPPEPGGRPEPGPRGFVPQKEIVYNKLLPYAERLDAESDLQLAQIKCNLGRAVQLQELWPGGLFWTRKLSTYIRLYGRKFSKEDHVLFIKLLYELVSIPKLEISMMQGFARLLINLLKKKELLSRADLELPWRPLYDMVERILYSKTEHLGLNWFPNSVENILKTLVKSCRPYFPADATAEMLEEWRPLMCPFDVTMQKAITYFEIFLPTSLPPELHHKGFKLWFDELIGLWVSVQNLPQWEGQLVNLFARLATDNIGYIDWDPYVPKIFTRILRSLNLPVGSSQVLVPRFLTNAYDIGHAVIWITAMMGGPSKLVQKHLAGLFNSITSFYHPSNNGRWLNKLMKLLQRLPNSVVRRLHRERYKKPSWLTPVPDSHKLTDQDVTDFVQCIIQPVLLAMFSKTGSLEAAQALQNLALMRPELVIPPVLERTYPALETLTEPHQLTATLSCVIGVARSLVSGGRWFPEGPTHMLPLLMRALPGVDPNDFSKCMITFQFIATFSTLVPLVDCSSVLQERNDLTEVERELCSATAEFEDFVLQFMDRCFGLIESSTLEQTREETETEKMTHLESLVELGLSSTFSTILTQCSKEIFMVALQKVFNFSTSHIFETRVAGRMVADMCRAAVKCCPEESLKLFVPHCCSVITQLTMNDDVLNDEELDKELLWNLQLLSEITRVDGRKLLLYREQLVKILQRTLHLTCKQGYTLSCNLLHHLLRSTTLIYPTEYCSVPGGFDKPPSEYFPIKDWGKPGDLWNLGIQWHVPSSEEVSFAFYLLDSFLQPELVKLQHCGDGKLEMSRDDILQSLTIVHNCLIGSGNLLPPLKGEPVTNLVPSMVSLEETKLYTGLEYDLSRENHREVIATVIRKLLNHILDNSEDDTKSLFLIIKIIGDLLQFQGSHKHEFDSRWKSFNLVKKSMENRLHGKKQHIRALLIDRVMLQHELRTLTVEGCEYKKIHQDMIRDLLRLSTSSYSQVRNKAQQTFFAALGAYNFCCRDIIPLVLEFLRPDRQGVTQQQFKGALYCLLGNHSGVCLANLHDWDCIVQTWPAIVSSGLSQAMSLEKPSIVRLFDDLAEKIHRQYETIGLDFTIPKSCVEIAELLQQSKNPSINQILLSPEKIKEGIKRQQEKNADALRNYENLVDTLLDGVEQRNLPWKFEHIGIGLLSLLLRDDRVLPLRAIRFFVENLNHDAIVVRKMAISAVAGILKQLKRTHKKLTINPCEISGCPKPTQIIAGDRPDNHWLHYDSKTIPRTKKEWESSCFVEKTHWGYYTWPKNMVVYAGVEEQPKLGRSREDMTEAEQIIFDHFSDPKFVEQLITFLSLEDRKGKDKFNPRRFCLFKGIFRNFDDAFLPVLKPHLEHLVADSHESTQRCVAEIIAGLIRGSKHWTFEKVEKLWELLCPLLRTALSNITVETYNDWGACIATSCESRDPRKLHWLFELLLESPLSGEGGSFVDACRLYVLQGGLAQQEWRVPELLHRLLKYLEPKLTQVYKNVRERIGSVLTYIFMIDVSLPNTTPTISPHVPEFTARILEKLKPLMDVDEEIQNHVMEENGIGEEDERTQGIKLLKTILKWLMASAGRSFSTAVTEQLQLLPLFFKIAPVENDNSYDELKRDAKLCLSLMSQGLLYPHQVPLVLQVLKQTARSSSWHARYTVLTYLQTMVFYNLFIFLNNEDAVKDIRWLVISLLEDEQLEVREMAATTLSGLLQCNFLTMDSPMQIHFEQLCKTKLPKKRKRDPGSVGDTIPSAELVKRHAGVLGLGACVLSSPYDVPTWMPQLLMNLSAHLNDPQPIEMTVKKTLSNFRRTHHDNWQEHKQQFTDDQLLVLTDLLVSPCYYA", "values": [{"measurement": "stoichiometry N", "setting": "[6]", "value": 2}]}
